Laboratory results taken from publication PMC8319882 (Drugs in R&D, 2021).

System: SARS-CoV-2 spike protein binding to ACE2

Sequence: FLDKFNHNFKDLF [13AApi]
- Inhibition of interaction between SARS-CoV-2 spike and immobilized ACE2: Greater than 40%
